Like-named read-outs stand apart in the source and are kept apart here.
What was measured:
[1] = system: bradykinin vasodepressor response; conditions: cited from earlier work
bradykinin degradation = conditions: isolated perfused rat heart and lung; cited from earlier work
isolated perfused heart = conditions: cited from earlier work
blood pressure = conditions: rat model of severe hypertension; cited from earlier work
aminopeptidase P = conditions: cited from earlier work
myocardial infarct size = conditions: intact rats subjected to regional cardiac ischemia; cited from earlier work
[2] = target: T1, rat membrane aminopeptidase P (Rattus norvegicus, UniProt Q99MA2); experiment: Inhibition of purified rat membrane aminopeptidase P with Arg-Pro-Pro substrate; assay type: biochemical
T1 sequence (Q99MA2 23-650): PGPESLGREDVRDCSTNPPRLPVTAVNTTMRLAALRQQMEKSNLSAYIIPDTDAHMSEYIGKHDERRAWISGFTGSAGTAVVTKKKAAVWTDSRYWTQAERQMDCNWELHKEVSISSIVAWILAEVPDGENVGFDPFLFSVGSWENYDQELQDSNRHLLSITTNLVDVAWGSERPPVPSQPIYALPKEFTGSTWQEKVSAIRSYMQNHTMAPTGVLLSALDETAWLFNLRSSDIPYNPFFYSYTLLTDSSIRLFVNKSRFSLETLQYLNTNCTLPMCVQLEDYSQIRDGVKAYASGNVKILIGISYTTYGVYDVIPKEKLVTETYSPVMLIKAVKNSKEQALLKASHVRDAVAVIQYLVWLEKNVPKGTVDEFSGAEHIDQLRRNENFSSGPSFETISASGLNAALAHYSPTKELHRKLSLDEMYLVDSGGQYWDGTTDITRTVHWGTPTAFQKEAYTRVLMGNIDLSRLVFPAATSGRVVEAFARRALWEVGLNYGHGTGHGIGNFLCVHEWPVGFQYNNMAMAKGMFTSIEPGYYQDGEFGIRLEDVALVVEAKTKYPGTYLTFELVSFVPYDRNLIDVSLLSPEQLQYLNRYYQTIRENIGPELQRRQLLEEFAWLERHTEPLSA
Procedure: The IC50 for each of compounds IV-VIII was determined as the concentration in nmoles/liter (nM) required to inhibit rat membrane aminopeptidase P by 50% using Arg-Pro-Pro (0.5 mM) as the substrate. […] See Maggiora et al.,

[3] = purified rat membrane aminopeptidase P, Arg-Pro-Pro (0.5 mM) as the substrate, read-out: Binding affinity (IC50 in nanomolar)

In the case of `C[C@H](NC(=O)[C@@H]1CCCN1C(=O)[C@@H]1CCCN1C(=O)[C@@H](O)[C@H](N)Cc1ccccc1)C(N)=O` [apstatin], the “effect on blood pressure-lowering effects of intravenously administered bradykinin” value ([1]; rat, in vivo, iv) is listed as “enhanced”, the “dose at which bradykinin potentiation has been observed” value ([1]; rats, intravenously, administered over a one hour period) is listed as 0.08 to 0.8 mg/kg and the bradykinin degradation (bradykinin degradation) is listed as “reduce bradykinin degradation”. The “reduction of reperfusion-induced ventricular fibrillation” value (isolated perfused heart) was “by a similar amount”, the “reduction of cardiac damage” value (isolated perfused heart; heart attack model) was 74% and the “blood pressure reduction with an ACE inhibitor” value (blood pressure) was “acted synergistically with an ACE inhibitor to reduce blood pressure to normal”. For the same molecule, the potency (aminopeptidase P) was “micromolar” and the myocardial infarct size (myocardial infarct size) was “substantially reduced myocardial infarct size”.

With `CC(NC(=O)C1CCCN1C(=O)C1CCCN1C(=O)CS)C(N)=O` (stereo not drawn) [Analog 1, N-mercaptoacetyl-Pro-Pro-Ala-NH2] the IC50 ([2]; rat mAPP, read-out: IC50) was 3400 nM.

For `CCCCC(S)C(=O)N1CCCC1C(=O)N1CCCC1C(=O)NC(C)C(N)=O` [Analog 2, N-[(R)-2-mercaptohexanoyl]-Pro-Pro-Ala-NH2], the IC50 [2, 3] was 130 nM.

`CCCCC(S)C(=O)N1CCCC1C(=O)N1C(C)CCC1C(=O)NC(C)C(N)=O` [Analog 3, N-[(R)-2-mercaptohexanoyl]-Pro-MePro-Ala-NH2] showed an IC50 [2, 3] of 170 nM.

In the case of `O=C(O)CCNC(=O)[C@@H]1CCCN1C(=O)[C@@H]1CCCN1C(=O)[C@@H](S)C1CCCCC1` [Analog 4, N-[(S)-2-mercapto-2-cyclohexylacetyl]-Pro-Pro-β-Ala-OH], the IC50 [2, 3] is reported as 87 nM.

`CCC(C)C(S)C(=O)N1CCCC1C(=O)N1CCCC1C(=O)NC(C)C(N)=O` [Analog 5, N-[(2S, 3S)-2-mercapto-3-methylpentanoyl]-Pro-Pro-Ala-NH2] showed an IC50 [2, 3] of 10 nM.

Reference: patent US7390789B2, “Thio-containing inhibitors of aminopeptidase P, and compositions thereof” (priority 2005, dated 2008)
